Patent publication US20190106460A1, “BINDING INHIBITORS OF THE BETA. TRANSDUCIN REPEAT-CONTAINING PROTEIN” (priority 2011, published 2019)
Where two headings read alike, the source gives them in different places. Starred links: 1 amine or outer side, 2 acyl side, 3 side chain; linkers in the order of their positions; H or OH if unused. Non-standard residues stand in square brackets, D forms with d. Residues, ends and D or L forms follow the SMILES beside them. *: point of attachment. 2Naphthylsulfonyl = O=S(=O)(c1ccc2ccccc2c1)*; Phe(3-F) = N[C@@H](Cc1cccc(F)c1)C(=O)O; 1Nal = N[C@@H](Cc1cccc2ccccc12)C(=O)O; NMeE = CN[C@@H](CCC(=O)O)C(=O)O; X1 = CCCCOc1ccc(S(=O)(=O)*)cc1; X2 = COc1ccc(S(=O)(=O)*)cc1OC; Suc = O=C(CCC(=O)[*:2])[*:1]; Tos = Cc1ccc(S(=O)(=O)*)cc1; Propionyl = CCC(=O)*; Moc = COC(=O)*

Columns and labels:
βTrCP [1] = target: T1, βTrCP (Homo sapiens, UniProt Q9Y297); test: Biotin pull down assay with biotinylated IκB peptide; format: binding; conditions: for Biotin Pulldown Assay 100 μM: 100 μM compound; for Biotin Pulldown Assay 10 μM: 10 μM compound
T1 sequence (Q9Y297 1-605): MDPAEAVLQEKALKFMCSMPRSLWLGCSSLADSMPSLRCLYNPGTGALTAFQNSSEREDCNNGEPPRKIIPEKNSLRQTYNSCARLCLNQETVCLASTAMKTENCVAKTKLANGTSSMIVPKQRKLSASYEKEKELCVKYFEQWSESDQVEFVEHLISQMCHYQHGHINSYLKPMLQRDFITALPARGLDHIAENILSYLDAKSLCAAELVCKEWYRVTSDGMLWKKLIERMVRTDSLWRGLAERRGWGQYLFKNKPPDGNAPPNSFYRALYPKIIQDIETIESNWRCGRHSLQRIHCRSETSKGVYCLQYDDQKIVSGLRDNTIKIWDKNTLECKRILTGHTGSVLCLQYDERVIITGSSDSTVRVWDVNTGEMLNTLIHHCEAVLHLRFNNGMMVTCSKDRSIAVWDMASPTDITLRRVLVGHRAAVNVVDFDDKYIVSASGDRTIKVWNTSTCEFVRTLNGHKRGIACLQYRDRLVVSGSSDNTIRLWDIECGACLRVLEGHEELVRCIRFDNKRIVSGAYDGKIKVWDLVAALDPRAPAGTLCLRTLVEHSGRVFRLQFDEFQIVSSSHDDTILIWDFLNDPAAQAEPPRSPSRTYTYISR

β-TrCP1/Skp1 = β-TrCP1/Skp1 (Homo sapiens, UniProt Q9Y297); test: βTrCP ubiquitination assay (Ub assay); format: biochemical; conditions: for Ub Assay 100 μM: 100 μM compound; for Ub Assay 10 μM: 10 μM compound
β-TrCP1/Skp1, sequence (P63208 2-163 partner limits assumed, one chain of several): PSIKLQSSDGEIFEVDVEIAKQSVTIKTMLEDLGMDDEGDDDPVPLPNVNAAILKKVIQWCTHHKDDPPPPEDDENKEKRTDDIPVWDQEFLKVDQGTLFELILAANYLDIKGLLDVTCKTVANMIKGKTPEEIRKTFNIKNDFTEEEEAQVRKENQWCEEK
Procedure: (§1) βTrCP Ubiquitination Assay and Selectivity Assays
0.5 μM Peptide substrate (biotin)
(§2) Master mixes were prepared in a 50 mM Herpes buffer at pH 7.5, in 75 mM NaCl and 1 mM DTT without Mg or ATP and peptides were added to a final concentration of 100 μM. Reactions were incubated at room temperature for 30 minutes and then Mg/ATP was added to the mix. Reactions were further incubated for an additional 60 minutes and then stopped by adding SDS gel loading buffer and boiled for 5 minutes. Reactions were run on SDS-PAGE (10%) and transferred to nitrocellulose membranes and probed with HRP-Streptavidin.
Candidate compounds were tested in duplicate at both 10 and 100 μM against the E3 ligase cascades βTrCP(IκBα) and βTrCP(β-catenin). The E3 assays were carried out according to the component concentrations detailed in Table 9. In each case the E2 was HA,6His-UbcH3-(hu,FL), the E1 was 6His-UBE1-(hu,FL) and the ubiquitin (Sigma U6253) was biotinylated at a 5:1 ratio. Substrate phosphorylation was performed in the absence of compound; consequently any observed signal modulation should not reflect inhibition of the up-stream kinase reaction. All other steps (E1, E2 and substrate ubiquitination) were carried out in the presence of compound. The stopped reaction mix (10 μl) was added to an ECL plate loaded with anti c-Myc ( 1/500 Dilution, Millipore 05-724) and blocked with 5% BSA. Binding was allowed to proceed for 1 hour at RT before a wash step (3 40 μl PBST washes). Detection was achieved by binding SA-Ru TAG at 1 μg/ml (1 hour @ RT, 3 40 μl PBST washes) before reading on an MSD Sector Imager 6000.
Assays were performed as described above

Skp2 = Skp2 (Homo sapiens, UniProt Q13309); test: Selectivity assay vs other E3s: Skp2; format: biochemical; conditions: for inhibition at 100 µM: value in brackets, read-out: % Inhibition Skp2 @ (100 μM); for inhibition at 10 µM: read-out: % Inhibition Skp2 @ 10 μM
Skp2, sequence (Q13309 whole entry, species assumed): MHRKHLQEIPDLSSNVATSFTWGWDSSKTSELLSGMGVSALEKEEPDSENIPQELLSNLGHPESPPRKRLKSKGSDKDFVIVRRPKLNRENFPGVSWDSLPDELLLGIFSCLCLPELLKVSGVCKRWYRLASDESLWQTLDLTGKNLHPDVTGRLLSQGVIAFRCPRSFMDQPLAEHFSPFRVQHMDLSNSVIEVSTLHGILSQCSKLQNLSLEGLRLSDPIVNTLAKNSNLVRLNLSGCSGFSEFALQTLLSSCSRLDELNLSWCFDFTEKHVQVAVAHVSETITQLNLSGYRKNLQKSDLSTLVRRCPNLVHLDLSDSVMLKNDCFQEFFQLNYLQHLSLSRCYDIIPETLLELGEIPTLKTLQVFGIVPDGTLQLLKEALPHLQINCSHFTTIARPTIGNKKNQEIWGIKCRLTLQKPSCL
Skp2, sequence (P63208 whole entry partner, species assumed): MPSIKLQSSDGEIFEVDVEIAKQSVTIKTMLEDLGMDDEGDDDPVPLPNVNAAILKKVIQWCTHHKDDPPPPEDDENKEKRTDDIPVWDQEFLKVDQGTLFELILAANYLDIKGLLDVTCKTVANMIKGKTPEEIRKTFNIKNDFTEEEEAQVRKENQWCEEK
Skp2, sequence (Q13616 whole entry partner, species assumed): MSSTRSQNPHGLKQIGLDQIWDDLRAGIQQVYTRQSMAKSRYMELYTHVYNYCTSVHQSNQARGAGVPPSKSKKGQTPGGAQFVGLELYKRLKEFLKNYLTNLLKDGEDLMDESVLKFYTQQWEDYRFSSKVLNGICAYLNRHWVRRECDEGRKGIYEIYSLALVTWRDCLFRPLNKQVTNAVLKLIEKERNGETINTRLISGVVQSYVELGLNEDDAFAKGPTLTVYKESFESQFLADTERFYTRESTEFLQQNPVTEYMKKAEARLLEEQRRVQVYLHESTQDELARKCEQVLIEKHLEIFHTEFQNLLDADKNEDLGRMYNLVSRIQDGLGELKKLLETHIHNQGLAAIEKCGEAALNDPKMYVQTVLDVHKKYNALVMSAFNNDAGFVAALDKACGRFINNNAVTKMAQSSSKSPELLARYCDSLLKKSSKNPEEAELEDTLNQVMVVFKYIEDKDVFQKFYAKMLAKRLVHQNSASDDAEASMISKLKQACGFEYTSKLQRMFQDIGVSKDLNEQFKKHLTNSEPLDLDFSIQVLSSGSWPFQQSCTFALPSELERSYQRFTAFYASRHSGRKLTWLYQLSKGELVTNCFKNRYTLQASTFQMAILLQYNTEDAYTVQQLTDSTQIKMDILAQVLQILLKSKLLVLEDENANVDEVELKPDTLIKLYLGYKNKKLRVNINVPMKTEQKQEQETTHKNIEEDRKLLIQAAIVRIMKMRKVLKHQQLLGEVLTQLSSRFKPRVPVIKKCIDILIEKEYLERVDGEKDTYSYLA
Skp2, sequence (P62877 whole entry partner, species assumed): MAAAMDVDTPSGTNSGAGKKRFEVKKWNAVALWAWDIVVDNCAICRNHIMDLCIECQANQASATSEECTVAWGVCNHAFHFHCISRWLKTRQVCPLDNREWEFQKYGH
Procedure: as §1, §2
(§3) Candidate compounds were tested for inhibition of Fbw7 and Skp2 as described above.

FBW7/Skp1 = FBW7/Skp1 (Homo sapiens, UniProt Q969H0); test: Selectivity assay vs other E3s: Fbw7; format: biochemical; conditions: for inhibition at 100 µM: value in brackets, read-out: % Inhibition Fbw7 @ (100 μM); for inhibition at 10 µM: read-out: % Inhibition Fbw7 @ 10 μM
FBW7/Skp1, sequence (Q969H0 whole entry, species assumed): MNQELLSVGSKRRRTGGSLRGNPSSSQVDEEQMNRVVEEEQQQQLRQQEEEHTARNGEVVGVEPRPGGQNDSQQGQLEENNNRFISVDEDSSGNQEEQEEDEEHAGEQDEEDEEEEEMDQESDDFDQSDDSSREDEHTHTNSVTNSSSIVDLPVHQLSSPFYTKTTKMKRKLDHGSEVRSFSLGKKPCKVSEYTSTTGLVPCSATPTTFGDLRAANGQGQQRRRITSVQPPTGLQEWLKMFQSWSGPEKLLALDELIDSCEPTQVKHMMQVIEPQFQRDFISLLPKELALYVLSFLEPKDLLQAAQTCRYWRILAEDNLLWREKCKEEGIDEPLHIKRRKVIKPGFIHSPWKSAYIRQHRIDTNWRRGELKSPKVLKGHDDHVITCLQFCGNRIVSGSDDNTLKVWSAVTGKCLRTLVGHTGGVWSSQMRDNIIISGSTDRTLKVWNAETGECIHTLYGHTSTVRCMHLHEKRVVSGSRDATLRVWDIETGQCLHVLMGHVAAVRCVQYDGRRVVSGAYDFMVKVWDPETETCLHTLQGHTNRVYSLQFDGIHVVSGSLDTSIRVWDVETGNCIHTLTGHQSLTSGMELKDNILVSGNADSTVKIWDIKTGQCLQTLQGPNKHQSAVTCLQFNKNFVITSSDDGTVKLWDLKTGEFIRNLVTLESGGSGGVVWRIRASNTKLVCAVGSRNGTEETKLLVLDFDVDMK
FBW7/Skp1, sequence (P63208 whole entry partner, species assumed): as the sequence (P63208 whole entry partner, species assumed) above
FBW7/Skp1, sequence (Q13616 whole entry partner, species assumed): as the sequence (Q13616 whole entry partner, species assumed) above
FBW7/Skp1, sequence (P62877 whole entry partner, species assumed): as the sequence (P62877 whole entry partner, species assumed) above
Procedure: as §1, §2
FBW7 selectivity assays were performed in the same manner except using FBW7/Skp1 as E3 component and cyclin E as the substrate. Blots were probed using anti-cyclin E antibody.
as §3

βTrCP [2] = target: βTrCP (Homo sapiens, UniProt Q9Y297); test: Fluorescence polarisation (FP) binding assay with fluorescein-tagged IκB peptide
Target sequence in this assay (P63208 whole entry partner, one chain of several): as the sequence (P63208 whole entry partner, species assumed) above

[3] = Table 11, with spread, read-out: FP IC50/μM
[4] = Tables 1, 3, 7, 8, 10 nM fluorescein-tagged IκB peptide, read-out: FP Assay IC50/μM

SMILES | Biotin Pulldown Assay 100 μM (βTrCP [1]) | Ub Assay 100 μM (β-TrCP1/Skp1) | inhibition at 100 µM (Skp2) | inhibition at 10 µM (Skp2) | inhibition at 100 µM (FBW7/Skp1) | inhibition at 10 µM (FBW7/Skp1) | IC50 (βTrCP [2]; [3]) | IC50 (βTrCP [2]; [4]) | Biotin Pulldown Assay 10 μM (βTrCP [1]) | Ub Assay 10 μM (β-TrCP1/Skp1) | FP Assay IC50/μM (βTrCP [2]; Tables 1, 3, 7, 8, 10 nM fluorescein-tagged IκB peptide)
Cc1ccc(S(=O)(=O)N[C@H](CC(=O)O)C(=O)N[C@@H](CCC(=O)O)C(=O)NCC(=O)N[C@@H](Cc2cccc(F)c2)C(=O)N[C@@H](Cc2c[nH]c3ccccc23)C(=O)N(C)[C@@H](CCC(=O)O)C(N)=O)cc1 [UBP032, Ts-dEGF(3F)WE(Me)-NH2] (Tos-[dD]EG[Phe(3-F)]W[NMeE]-NH2) | inhibits | inhibits | 0% | 0% | 10% | 4% |  |  |  |  | 
CCC(=O)N[C@H](CC(=O)O)C(=O)N[C@@H](CCC(=O)O)C(=O)NCC(=O)N[C@@H](Cc1cccc(F)c1)C(=O)N[C@@H](Cc1c[nH]c2ccccc12)C(=O)N[C@@H](CCC(=O)O)C(N)=O [UBP019, Et(CO)-dEGF(3F)WE-NH2] (Propionyl-[dD]EG[Phe(3-F)]WE-NH2) | inhibits | inhibits | 10% | 1% | 10% | 0% | 0.145 ± 0.026 µM | 0.145 µM | reduces/ | reduces/ | 
CC(=O)N[C@H](CC(=O)O)C(=O)N[C@@H](CCC(=O)O)C(=O)NCC(=O)N[C@@H](Cc1cccc(F)c1)C(=O)N[C@@H](Cc1cccc2ccccc12)C(=O)N[C@@H](CCC(=O)O)C(N)=O [UBP016, Ac-dEGF(3F)1NalE-NH2] (Ac-[dD]EG[Phe(3-F)][1Nal]E-NH2) | inhibits | inhibits | 7% | 0% | 8% | 3% | 0.112 ± 0.017 µM |  | reduces/ | reduces/ | 
NC(=O)[C@H](CCC(=O)O)NC(=O)[C@H](Cc1c[nH]c2ccccc12)NC(=O)[C@H](Cc1cccc(F)c1)NC(=O)CNC(=O)[C@H](CCC(=O)O)NC(=O)[C@@H](CC(=O)O)NS(=O)(=O)c1ccc2ccccc2c1 [UBP031, 2-NaphthylSO2-dEGF(3F)WE-NH2] (2Naphthylsulfonyl-[dD]EG[Phe(3-F)]WE-NH2) | inhibits | inhibits | 17% | 0% | 11% | 10% | 0.044 ± 0.005 µM |  | reduces/ | reduces/ | 
Cc1ccc(S(=O)(=O)N[C@H](CC(=O)O)C(=O)N[C@@H](CC(=O)O)C(=O)NCC(=O)N[C@@H](Cc2cccc(F)c2)C(=O)N[C@@H](Cc2c[nH]c3ccccc23)C(=O)N[C@@H](CCC(=O)O)C(N)=O)cc1 [UBP025, Ts-dDGF(3F)WE-NH2] (Tos-[dD]DG[Phe(3-F)]WE-NH2) | inhibits | inhibits | 22% | 0% | 8% | 1% | 0.025 ± 0.004 µM | 0.025 µM | s. reduces/ | inhibits/ | 
COC(=O)N[C@H](CC(=O)O)C(=O)N[C@@H](CCC(=O)O)C(=O)NCC(=O)N[C@@H](Cc1cccc(F)c1)C(=O)N[C@@H](Cc1c[nH]c2ccccc12)C(=O)N[C@@H](CCC(=O)O)C(N)=O [UBP020, MeO(CO)-dEGF(3F)WE-NH2] (Moc-[dD]EG[Phe(3-F)]WE-NH2) | inhibits | inhibits | 16% | 0% | 8% | 6% | 0.076 ± 0.014 µM |  | reduces/ | inhibits/ | 
Cc1ccc(S(=O)(=O)N[C@H](CC(=O)O)C(=O)N[C@@H](CCC(=O)O)C(=O)NCC(=O)N[C@@H](Cc2cccc(F)c2)C(=O)N[C@@H](Cc2c[nH]c3ccccc23)C(=O)N[C@@H](CC(=O)O)C(N)=O)cc1 [UBP027, Ts-dEGF(3F)WD-NH2] (Tos-[dD]EG[Phe(3-F)]WD-NH2) | inhibits | inhibits | 6% | 4% | 8% | 3% | 0.034 ± 0.005 µM | 0.034 µM | s. reduces/ | inhibits/ | 
COc1ccc(S(=O)(=O)N[C@H](CC(=O)O)C(=O)N[C@@H](CCC(=O)O)C(=O)NCC(=O)N[C@@H](Cc2cccc(F)c2)C(=O)N[C@@H](Cc2c[nH]c3ccccc23)C(=O)N[C@@H](CCC(=O)O)C(N)=O)cc1OC [UBP029, 3,4-(MeO)2-PhSO2-dEGF(3F)WE-NH2] (X2-[dD]EG[Phe(3-F)]WE-NH2) | inhibits | inhibits | 19% | 19% | 0% | 2% | 0.042 ± 0.001 µM |  | reduces/ | reduces/ | 
Cc1ccc(S(=O)(=O)N[C@H](CC(=O)O)C(=O)N[C@@H](CC(=O)O)C(=O)NCC(=O)N[C@@H](Cc2cccc(F)c2)C(=O)N[C@@H](Cc2c[nH]c3ccccc23)C(=O)N[C@@H](CC(=O)O)C(N)=O)cc1 [UBP028, Ts-dDGF(3F)WD-NH2] (Tos-[dD]DG[Phe(3-F)]WD-NH2) | inhibits | inhibits | 14% | 0% | 10% | 4% | 0.081 ± 0.02 µM | 0.081 µM | reduces/ | inhibits/ | 
NC(=O)[C@H](CCC(=O)O)NC(=O)[C@H](Cc1ccccc1)NC(=O)[C@H](Cc1ccccc1)NC(=O)CNC(=O)[C@H](CCC(=O)O)NC(=O)CCC(=O)O [UBP002, Suc-EGFFE-NH2] (Suc-EGFFE-NH2) | reduces | inhibits | 0% | 14% | 0% | 0% | 3.18 ± 0.357 µM |  | no effect/ | reduces/ | low μM inhibitor
CCCCOc1ccc(S(=O)(=O)N[C@H](CC(=O)O)C(=O)N[C@@H](CCC(=O)O)C(=O)NCC(=O)N[C@@H](Cc2cccc(F)c2)C(=O)N[C@@H](Cc2c[nH]c3ccccc23)C(=O)N[C@@H](CCC(=O)O)C(N)=O)cc1 [UBP030, 4-(BuO)-PhSO2-dEGF(3F)WE-NH2] (X1-[dD]EG[Phe(3-F)]WE-NH2) | inhibits | inhibits | 13% | 0% | 12% | 7% | 0.056 ± 0.008 µM | 0.056 µM | reduces/ | reduces/ | 
